Measurements from PMC4841536, “Characterization of the Anti-HCV Activities of the New Cyclophilin Inhibitor STG-175” (PLoS ONE, 2016).
pEC50: −log10 of the molar value. Where two headings read alike, the source gives them in different places.

How the values were obtained:
Format in all cases: cell-based
[1] = test system: HCV GT1b subgenomic replicon pFK-I389/NS3-3’; assay: Luciferase reporter replicon antiviral assay, GT1b; conditions: Hepatitis C virus
Experimental: The anti-HCV activity of STG-175 was conducted using a panel of luciferase reporter replicon cell lines including GT1a, GT1b, GT2a, GT3a and GT4a as we described previously. The GT1a subgenomic renilla luciferase reporter replicon H77 RLucP (7) was supplied by Dr. Delaney. The GT1b subgenomic firefly luciferase reporter replicon pFK-I389/NS3-3’ [29] was supplied by Dr. Bartenschlager. The GT1B subgenomic NS3, NS5A and NS5B mutants were created via homologous recombination using the In-Fusion HD Cloning kit (Clontech) as we described previously. The GT2a genomic luciferase reporter replicon Luc-Neo-JFH-1 was generated as previously. The plasmid pFK-Luc-JFH1 was supplied from Drs. Wakita and Pietschmann and the XbaI site in the firefly luciferase gene and the NotI site in the EMCV IRES were used to take the Luciferase/Ubiquitin-NPT II (the neomycin phosphotransferase II gene) fusion cassette out of pFK389ILuc-Neo (wild-type replicon from GT1b) and inserted into the pFK-Luc-JFH1 plasmid, generating full-length Luc-Neo-JFH-1 [30]. The GT3a subgenomic firefly luciferase reporter replicon S52/SG-Feo (AI) and the GT4a subgenomic firefly luciferase reporter replicon ED43/SG-Feo [33] were supplied by Drs. Rice and Bukh. Replicons were stably expressed in Huh7.5 or Huh7.5.1 cells under G418 selection. On Day 1, cells (5,000) were plated into 96-well plates in complete DMEM containing 10% FCS. On Day 2, increasing drug concentrations were added to wells. On Day 5, 72 h post-drug addition, medium was removed and replaced with 100 μL of fresh medium. Hundred μL of the fluorogenic, cell-permeant peptide substrate glycyl-phenylalanyl-amino fluorocoumarin was added to wells as per manufacturer’s recommendation (Promega Corp, Madison, WI). The CellTiter-Fluor™ Cell Viability Assay is a non-lytic fluorescence assay, which measures the number of live cells. […] Medium was removed, cells washed and lysed in 20 μL of Cell Culture Lysis Reagent. Luciferase activity was determined using the Luciferase Assay System (Promega) in a Berthold luminometer. The alamarBlue® assay (Thermo Fischer Scientific) was used to measure CC50s for STG-175 on replicon cell lines. When cells are alive they maintain a reducing environment within the cytosol of the cell. […] Upon entering cells, resazurin is reduced to resorufin, a compound that is red in color and highly fluorescent. Viable cells continuously convert resazurin to resorufin, increasing the overall fluorescence and color of the media surrounding cells.
Fig 2 Anti-HCV activities of STG-175 among GTs. A. Replicon-containing cells (5,000) were exposed to increasing concentrations of the indicated drugs. Seventy-two hours post-drug addition, the fluorogenic, cell-permeant peptide substrate glycyl-phenylalanyl-amino fluorocoumarin was added to measure the number of live cells. […] Luciferase activity was determined using the Luciferase Assay System in a Berthold luminometer. B. A similar experiment was conducted with the GT1b replicon cell line in 0, 5, 10, 20 and 40% of human serum. Data are expressed as mean of relative light units and calculated EC50s are presented. […] C.

[2] = test system: NS3i-resistant R155Q/A156T NS3 Con1 GT1b replicon; assay: Electroporated Con1 RNA replication in Huh7.5.1 cells (RT-qPCR), R155Q/A156T NS3; conditions: Hepatitis C virus, Huh-7.5.1, 192 h, read-out: EC50 R155Q/A156T NS3
Source text: (§1) The GT1b subgenomic firefly luciferase reporter replicon pFK-I389/NS3–3 was provided by R. Bartenschlager. The GT1B subgenomic NS3, NS5A and NS5B mutants were created via homologous recombination using the In-Fusion HD Cloning kit (Clontech) as we described previously. […] The in vitro transcription of wild-type and mutant Con1 RNA was accomplished using the T7 MEGAscript kit (Ambion) by following the manufacturer’s instructions. In vitro-transcribed RNAs were introduced into Huh7.5.1 cells by electroporation. Trypsinized cells were washed twice and resuspended in phosphate-buffered saline (PBS) (calcium-free and magnesium-free) at 1x 10^7 cells per ml. Ten micrograms of RNA for each mutant was mixed with 0.4 mL of cells in a 4-mm cuvette, and a Bio-Rad Gene Pulser system was used to deliver a single pulse at 0.27 kV, 100 ohms, and 960 μF. […] RNA transfection efficiency and HCV subgenomic replication were assessed by reverse transcription-quantitative PCR (RT-qPCR) and presented as genome equivalents (GE) per microgram of total RNA as described previously. We measured by RT-qPCR the replication of wild-type, STG-175-, NS5Ai-, NS3i- and NS5Bi-resistant mutants in the presence of increasing concentrations of SGT-175, daclatasvir, telaprevir, boceprevir and sofosbuvir over a period of 8 days.
(§2) Fig 5 Cross-resistance analyses. […] Data are expressed as log of GE/μg of total RNA. […]

[3] = test system: NS5Bi-resistant S282T NS5B Con1 GT1b replicon; assay: Electroporated Con1 RNA replication in Huh7.5.1 cells (RT-qPCR), S282T NS5B; conditions: Hepatitis C virus, Huh-7.5.1, 192 h, read-out: EC50 S282T NS5B
Source text: as §1, §2

[4] = test system: HIV-1 in mixed PBMCs, NTCP-Huh7 and Huh7.5.1 cells; assay: Dual/triple co-infection in cell co-cultures, HIV-1 readout

## CC=CCC(C)C(O)C1C(=O)NC(CC)C(=O)N(C)C(CSCCCCO)C(=O)N(C)C(CC(C)(C)O)C(=O)NC(C(C)C)C(=O)N(C)C(CC(C)C)C(=O)NC(C)C(=O)NC(C)C(=O)N(C)C(CC(C)C)C(=O)N(C)C(CC(C)C)C(=O)N(C)C(C(C)C)C(=O)N1C (stereo not shown) [STG-175]
[1]; 0% human serum, read-out: EC50 GT1b in human serum
  pEC50: 7.80
[1]; 5% human serum, read-out: EC50 GT1b in human serum
  pEC50: 7.82
[1]; 10% human serum, read-out: EC50 GT1b in human serum
  pEC50: 7.73
[1]; 20% human serum, read-out: EC50 GT1b in human serum
  pEC50: 7.65
[1]; 40% human serum, read-out: EC50 GT1b in human serum
  pEC50: 7.43
[1]; 72 h, 72 h post-drug addition, luciferase, read-out: EC50 GT1b
  pEC50: 7.82
[2]
  pEC50: 7.87
[3]
  pEC50: 8.27
[4]; STG-175 added together with virus
  HIV-1 infection in co-infection: totally blocked
[4]; added 3 days post-infection and then every 3 days
  established HIV-1 infection in co-infection: almost totally aborted
